# Values quoted from earlier work as cited in US20240366648A1, “NAD-AUGMENTATION THERAPY FOR PARKINSON'S DISEASE” (Vestlandets Innovasjonsselskap AS (VIS), priority 2021, published 2024).
# B1: cinpanemab: a-synuclein antibody drug (antibody, chains of the INN, looked up, V domains shown)
# VH: EVQLVESGGGLVEPGGSLRLSCAVSGFDFEKAWMSWVRQAPGQGLQWVARIKSTADGGTTSYAAPVEGRFIISRDDSRNMLYLQMNSLKTEDTAVYYCTSAHWGQGTLVTVSS
# VL: SYELTQPPSVSVSPGQTARITCSGEALPMQFAHWYQQRPGKAPVIVVYKDSERPSGVPERFSGSSSGTTATLTITGVQAEDEADYYCQSPDSTNTYEVFGGGTKLTVL
# How the values were obtained:
# PD patients = conditions: cited from earlier work
# a-synuclein = molecular target: T1, a-synuclein (Homo sapiens, UniProt P37840); conditions: in vivo; cited from earlier work
# T1 construct: host or cells: PD patients in a clinical trial (endogenous protein)
Molecule,decrease of motor decline compared to tocopherol (PD patients) [%],clinical trial outcome in PD (a-synuclein)
"C#CCN(C)[C@H](C)Cc1ccccc1 [L-Deprenyl, selegiline]",50,
B1,,did not achieve proof-of-concept and missed its primary and secondary endpoints
